Laboratory results published in publication PMC3740496, “Synthesis and biological activities of the respiratory chain inhibitor aurachin D and new ring versus chain analogues” (Beilstein Journal of Organic Chemistry, 2013).
≈ marks a conversion by molar mass, not a printed value.

Columns and labels:
[1] = tested on: mitochondrial membrane potential in U-2 OS osteosarcoma cells; test: MMP assay (high-content screening, TMRM); type: cell-based, human; conditions: 16 h; for effect on MMP in the tested concentration range: 1 to 10 µg/mL; for reduction of the MMP: at concentrations as low as 5 µg/mL; for mitochondrial membrane potential (MMP), % of the control value: highest assay concentration (10 µg/mL), TMRM
Protocol: Since aurachins are described as electron-transport inhibitors of the mitochondrial respiratory chain (complex I and III), we analyzed the synthetic analogues in high-content screening experiments with respect to a decrease of the mitochondrial membrane potential (MMP). Human U-2 OS osteosarcoma cells were treated for 16 hours with aurachins 4, 9–11, and 17–19 at concentrations between 1 and 10 µg/mL, and mitochondria were labeled with tetramethylrhodamine methyl ester (TMRM) in order to assess changes in MMP (Figure 2). Most prominent concentration-dependent effects were determined for aurachin D (4) and one of its analogues (17). […] This might be due to differential effects on different cell lines, a different time course of electron-transport inhibition, or a different mode of inducing apoptosis (e.g., via enhanced ROS formation). However, at the highest assay concentration also shorter chain analogues 9–11 reduced the MMP to approximately 60–80% of the control value as exemplarily shown for geranyl analogue 9 (Figure 2B).
Figure 2 (A) Loss of mitochondrial membrane potential in human U-2 OS osteosarcoma cells that were treated with aurachin D (4) and analogue 17. Images were acquired on a BD Pathway855 automated microscope and subsequently processed in AttoVision v1.6.2. The relative MMP was calculated based on TMRM fluorescence intensity in the cytoplasmic segments. The value of the negative control (untreated cells) was set to 100% and the value of FCCP-treated cells (positive control) was set to 0%. Bars represent the mean ±SEM of all cellular segments within a well. (B) Representative HCS images of U-2 OS cells that were treated with aurachin D (4) or the geranyl analogue 9. Cells were labeled with TMRM and imaged in the rhodamine channel at 200× magnification. […]
MMP assay: Human U-2 OS osteosarcoma cells (HTB-96) were obtained from the American Type Culture Collection (ATCC) and were cultured under the conditions recommended by the depositor. Cells from actively growing cultures were harvested and seeded at 8 × 10^3 cells per well in 96-well imaging plates (BD Falcon). After 1 d cells reached approximately 60% confluency and were treated with aurachin analogues at the assigned concentrations for 16 h. In addition, cells were stimulated with 1 µM FCCP [carbonyl cyanide 4-(trifluoromethoxy)phenylhydrazone] as a positive control 1 h prior to the measurement. For labeling, cells were washed twice with assay buffer ([…], 5.4 mM KCl, 2 mM MgCl2, 10 mM glucose, 2 mM CaCl2, 10 mM HEPES; pH 7.35) and 100 µL of a staining solution (50 nM TMRM, […]
5 µg/mL Hoechst33342 in assay buffer) was added. The cells were stained for 30 min at 37 °C and after washing with assay buffer the samples were examined on an automated microscope (BD Pathway855) in 200-fold magnification with appropriate filter sets for rhodamine and Hoechst. For image analysis, a dual mask (Cyto-Nuc-Ring) was applied in AttoVision v1.6.2. Presented rhodamine fluorescence intensity values were generated in the cytoplasmic segment (ring around nuclei) on a single cell basis and averaged over the complete sample (well).
In vitro antiplasmodial assays: The chloroquine-resistant strain FcB1/Colombia of Plasmodium falciparum was maintained in vitro on human erythrocytes in RPMI 1640 medium supplemented by 8% (v/v) heat-inactivated human serum, at 37 °C, under an atmosphere of 3% CO2, 6% O2, and 91% N2. In vitro drug susceptibility assays was measured by [3H]-hypoxanthine incorporation as described. Drugs were prepared in DMSO at a 10 mg/mL concentration. Compounds were serially diluted two-fold with 100 µL culture medium in 96-well plates. Asynchronous parasite cultures (100 µL, 1% parasitaemia and 1% final hematocrite) were then added to each well and incubated for 24 h at 37 °C prior to the addition of 0.5 µCi of [3H]- hypoxanthine (GE Healthcare, France, 1 to 5 Ci·mmol/mL) per well. After a further incubation of 24 h, plates were frozen and thawed. […]

[2] = Cytotoxicity, growth inhibition (MTT); type: cell-based, human; conditions: human, cell line not named at the place (Table 2: HCT-116 and K562); read-out: cytotoxic activity (IC50) on mammalian cell lines
Protocol: The cytotoxic activity of aurachin D (4) and analogues 9–11 and 17–19 was evaluated in growth inhibition experiments on mammalian cell lines (Table 2). After 5 days treatment, half inhibitory concentrations (IC50) were determined for human HCT-116 colon carcinoma and human K562 myelogenous leukemia cells. […]
was further incubated for 1.5 h. The medium was then discarded and 100 µL 2-propanol/10 N HCl (250:1) was added in order to dissolve formazan granules. The absorbance at 570 nm was measured using a microplate reader (EL808, Bio-Tek Instruments Inc.) and cell viability was expressed as a percentage relative to the respective solvent control. […]

[3] = tested on: Vero cells (nontumor cells); test: Cytotoxicity on Vero cells (MTT); type: cell-based; conditions: 48 h incubation
Protocol: was further incubated for 1.5 h. The medium was then discarded and 100 µL 2-propanol/10 N HCl (250:1) was added in order to dissolve formazan granules. The absorbance at 570 nm was measured using a microplate reader (EL808, Bio-Tek Instruments Inc.) and cell viability was expressed as a percentage relative to the respective solvent control. VERO cells: VERO cells were seeded into 96-well microplates at 10^5 cells per mL in RPMI supplemented with 10% foetal calf serum.
After 24 h, the cells were washed and two microliters of two-fold serial dilutions of each compound (10 mg/mL) was added to 100 μL of medium. Cells were then incubated for 48 h at 37 ° C under a 5% CO2 atmosphere. At the end of incubation, 20 µL of MTT solution (5 mg/mL) was added to each well and further incubated for 4 h at 37 °C to allow the formation of formazan. The crystals of formazan were then dissolved with 100 µL of a freshly prepared solution of sodium dodecyl sulfate (SDS) 10% (15 mL) and HCl 1 N (150 µL). The optical density of each well was measured at 595 nm using a multiwell plate reader. The 50% inhibition concentration was then determined by curve fitting.
MMP assay: Human U-2 OS osteosarcoma cells (HTB-96) were obtained from the American Type Culture Collection (ATCC) and were cultured under the conditions recommended by the depositor. Cells from actively growing cultures were harvested and seeded at 8 × 10^3 cells per well in 96-well imaging plates (BD Falcon). After 1 d cells reached approximately 60% confluency and were treated with aurachin analogues at the assigned concentrations for 16 h. In addition, cells were stimulated with 1 µM FCCP [carbonyl cyanide 4-(trifluoromethoxy)phenylhydrazone] as a positive control 1 h prior to the measurement. For labeling, cells were washed twice with assay buffer ([…], 5.4 mM KCl, 2 mM MgCl2, 10 mM glucose, 2 mM CaCl2, 10 mM HEPES; pH 7.35) and 100 µL of a staining solution (50 nM TMRM,

bacterial cytochrome bd = tested on: bacterial cytochrome bd; set-up: method as in PMID 7827023; conditions: cited from earlier work

COc1ccc2[nH]c(C)c(CC=C(C)CCC=C(C)CCC=C(C)C)c(=O)c2c1 [compound 18]
effect on MMP in the tested concentration range [1]: essentially inactive | IC50 at 5 days [2]: ~1 µg/mL (≈ 2.54 µM)

CC(C)=CCCC(C)=CCCC(C)=CCc1c(C)[nH]c2ccc3ccccc3c2c1=O [compound 17]
effect on MMP in the tested concentration range [1]: strongly diminished the MMP | reduction of the MMP [1]: significantly reduced the MMP

CC(C)=CCC/C(C)=C/Cc1c(C)[nH]c2ccccc2c1=O [compound 9]
melting point: 187 to 189 °C | mitochondrial membrane potential (MMP), % of the control value [1]: 60–80%

CC(C)=CCC/C(C)=C/CC/C(C)=C/Cc1c(C)[nH]c2ccccc2c1=O [compound 4, aurachin D]
IC50 [3]: 13.8 µg/mL (≈ 38 µM) | inhibition of the cytochrome bd complex (bacterial cytochrome bd): selectively inhibit | reduction of the MMP [1]: significantly reduced the MMP | mitochondrial membrane potential (MMP), % of the control value [1]: approximately 50%

CC(C)=CCCC(C)=CCCC(C)=CCc1c(C)[nH]c2cc3c(cc2c1=O)OCO3 [compound 19]
melting point: 298 to 300 °C (dec.) | IC50 [3]: 4.4 µg/mL (≈ 10.8 µM) | effect on MMP in the tested concentration range [1]: essentially inactive
